Measured values published in patent US20090197279A1, “MICROTUBULE SYNTHESIS AS A BIOMARKER” (KINEMED, INC., priority 2005, published 2009).

What was measured:
[1] = test system: hippocampal tubulin dimers and tau-associated, tau-nonassociated (MAP2/STOP) and cold-stable microtubules; assay: 2H label incorporation into hippocampal tubulin dimers and microtubule fractions after ICVC infusion (2H2O labeling, GC/MS); format: in vivo, mouse
Protocol: In (A) and (B), mice received ICVC infusions of 6 μl water alone or containing 0.48 nmol glutamate (80 μM in the infusate), or glutamate plus 0.66 pmol Rp-cAMP (110 nM in the infusate). Animals were then labeled with ^2H2O for 8 hours (A) or 24 hours (B). At sacrifice, the hippocampal post-nuclear supernatant was fractionated as show in FIG. 5A; a separate aliquot was used for isolation of cold stable (CS) MTs (FIG. 5D). Glutamate injection stimulated label incorporation into new MAP2/STOP-MTs at 8 and 24 hours, and CS MTs at 24 hours; both were blocked by Rp-cAMP. In order to correct the effects of pharmacologic intervention on MT dynamics for the confounding changes in tubulin synthesis, the numbers above each bar express ^2H label incorporation into MT as a percentage of ^2H labeling in the corresponding tubulin dimer fractions. (C) Dose dependence of glutamate effects. ^2H2O labeling was initiated at time zero, 6 μl ICVC infusions with the indicated concentrations of glutamate were performed at 24 hours, and labeling was continued until sacrifice at 48 hours (24 hours post glutamate infusion). Hippocampal MTs were fractionated into tau-associated, MAP2-associated, and non-associated (STOP-associated) MT fractions, as in FIG. 5A. In all experiments, bars represent % new tubulin (mean±SD, n=3).
Tubulin was purified using minor modifications of protocols described previously (Fanara, P., Oback, B., Ashman, K., Podtelejnikov, A., Brandt, R. Identification of MINUS, a small polypeptide that functions as a microtubule nucleation suppressor. EMBO J. 18, 565-577 (1999); Fanara, P. et al. In vivo measurement of microtubule dynamics using stable isotope labeling with heavy water. Effect of taxanes. J. Biol. Chem. 279, 49940-49947 (2004). Briefly, cultured neurons were gently scraped off culture plates, washed in phosphate-buffered saline (PBS), and homogenized in microtubule-stabilizing buffer. For purification ex vivo, mice were anesthetized with isoflurane and euthanized by cervical dislocation. Brains were rapidly removed and washed in microtubule-stabilizing buffer (MSB); hippocampi were dissected and gently homogenized in MSB. To separate cytosolic tubulin dimers from microtubule polymers, post-nuclear supernatants were centrifuged at 190,000×g at 20° C. for 35 min. The supernatant or non-microtubule fraction (containing the soluble dimeric tubulin) was separated from the pellet or microtubule fraction (containing polymeric tubulin), quick-frozen and stored at −20° C. Microtubule pellets were further fractionated by sequential immunoaffinity chromatography steps (FIG. 3). In order to isolate tau-associated microtubules, TAU5 antibody was covalently coupled to epoxy-activated Sepharose beads (Amersham Pharmacia Biotech) at a concentration of 0.25 mg/ml. Approximately 0.2 mg of the microtubule pellet was incubated with TAU-5 beads in 0.5 ml MSB for 1 hour at room temperature. Unbound material was removed, the beads were washed three times in 0.5 ml of MSB, and bound material was eluted in 0.5 ml MSB containing 1M NaCl. In some experiments, MAP2-associated microtubules were captured from the TAU5-unbound material by immunoaffinity chromatography on epoxy-activated Sepharose beads coupled to MAP2 antibody (0.5 mg antibody per ml beads) using the same protocol. The relative abundance of tubulin in each preparation (Tubulin dimers and TAU5-bound, MAP2-bound, and unbound microtubule fractions) was quantified by Western blot, and tubulin from these fractions was further purified by ion exchange and size exclusion chromatography, as previously described (Fanara, P. et al. In vivo measurement of microtubule dynamics using stable isotope labeling with heavy water. Effect of taxanes. J. Biol. Chem. 279, 49940-49947 (2004)). […]

[2] = test system: total hippocampal proteins; assay: Fractional synthesis of total hippocampal proteins; format: in vivo, mouse; conditions: coadministration of 0.66 pmol Rp-cAMP with glutamate
Protocol: FIG. 7 depicts the effects of ICV glutamate on the relative amounts of MT subpopulations and on total protein synthesis in murine hippocampus. (A, B) Tubulin abundances are measured by Western blot analysis for α-tubulin at 8 hour (A) and 24 hours (B). Subpopulations were total extract (total), free tubulin dimers, tau-associated MTs, tau-nonassociated (MAP2/STOP) MTs and cold stable (CS) MTs. Mock and glutamate infused ICVC mice are shown (cf. FIGS. 6A and B). […] (C) Fractional synthesis of total hippocampal proteins. Glutamate increased protein synthesis versus mock-treated animals (*p<0.01); this effect was blocked by coadministration with 0.66 pmol of Rp-cAMP (**p<0.02).
This hypothesis had not previously been tested in the living brain, however. To test this hypothesis, we used the methods of the invention disclosed herein. Mice were infused with 6 μl water containing 0.48 nmol glutamate (80 μM in the infusate), or glutamate plus 0.66 pmol Rp-cAMP (110 nM in the infusate). Label incorporation into hippocampal tubulin dimers and into microtubule polymers was then quantified after administration of ^2H2O for 8 hours or 24 hours (FIGS. 7A and 7B). […] These findings further strengthen the previously reported correlation between hippocampus glutamate NMDA receptor-dependent learning (long-term potentiation) and protein synthesis (Kandel, E. R. The molecular biology of memory storage: a dialogue between genes and synapses. Science 294, 1030-1038 (2001)). By the same criterion, the glutamate-induced program of changes in hippocampal microtubule dynamics shown in FIGS. 6 and 7 also alters hippocampal total protein synthesis in vivo (data not show), further supporting the capacity of the invention disclosed herein to generate a biochemical record of basic neuroanatomic connectivity in the brain and thereby to reveal the dynamics of synaptogenesis in vivo.

[3] = Toxicity of maintained body water 2H2O enrichment; format: in vivo; conditions: 1-10% of total body water labeled, maintained for weeks or months; >100 human subjects
Description: Relatively high body water enrichments of ^2H2O (e.g., 1-10% of the total body water is labeled) may be achieved relatively inexpensively using the techniques of the invention. […] This finding in a large number of human subjects (>100 people) is contrary to previous concerns about vestibular toxicities at high doses of ^2H2O. One of the Applicants has discovered that as long as rapid changes in body water enrichment are prevented (e.g., by initial administration in small, divided doses), high body water enrichments of ^2H2O can be maintained with no toxicities. For example, the low expense of commercially available ^2H2O allows long-term maintenance of enrichments in the 1-5% range at relatively low expense (e.g., calculations reveal a lower cost for 2 months labeling at 2% ^2H2O enrichment, and thus 7-8% enrichment in the alanine precursor pool, than for 12 hours labeling of ^2H-leucine at 10% free leucine enrichment, and thus 7-8% enrichment in leucine precursor pool for that period).

Structure (SMILES) | glutamate-stimulated label incorporation into new MAP2/STOP-MTs ([1]; 0.48 nmol glutamate plus 0.66 pmol Rp-cAMP ICVC, 8 and 24 hours) | glutamate-stimulated label incorporation into CS MTs ([1]; 0.48 nmol glutamate plus 0.66 pmol Rp-cAMP ICVC, 24 hours) | fractional synthesis of tubulin dimers and microtubules ([1]; glutamate plus 0.66 pmol Rp-cAMP, 24 hours) | glutamate-induced increase in total hippocampal protein synthesis [2] | toxicity [3]
Nc1ncnc2c1ncn2[C@@H]1O[C@@H]2COP(O)(=S)O[C@H]2[C@H]1O (single isomer, unassigned) [Rp-cAMP, adenosine-3′,5′-monophosphorothioate, Rp-isomer] | blocked | blocked | significantly blocked | blocked | –
[2H]O[2H] [^2H2O] | – | – | – | – | without any evidence of toxicity
